# Tests used:
# [1] = tested on: K562/ADR (K562adr, drug-resistant chronic myeloid leukemia) cells; experiment: MTT cell growth inhibition, leukemia cells; format: cell-based; conditions: Homo sapiens, K562/ADR, 72 h, MTT; for IC50: read-out: IC50; for IC90: read-out: IC90
# Text: (§1) Leukemia cell lines: leukemia cell lines: K562adr (drug-resistant, chronic myeloid leukemia, CML), NB4 (acute promyelocytic leukemia, AML), Kasumi-1 (acute myeloid leukemia M2 type, AML-M2), Jurkat (acute lymphoblastic leukemia, ALL), all of which were donated by Cancer Research Institute of Zhejiang University, China; and H9 (acute lymphoblastic leukemia, ALL), which was purchased from China Center for Type Culture Collection.
# (§2) Reagents: The standard sample of fangchinoline (FAN) was purchased from Ci Yuan Biotechnology Co., Ltd., Shaanxi, China; and the 7-substituted fangchinoline derivatives according to the present invention.
# (§3) 6000 well-growing leukemia cells were obtained and inoculated into wells of a 96-well cell culture plate. The culture medium was a RPMI-1640 cell culture medium containing 10% fetal bovine serum. After adding the 7-substituted fangchinoline derivatives of different concentrations the next day and mixing uniformly, the plate was placed in a carbon dioxide cell incubator (5% CO2) at 37° C. and incubating for 72 hours. Then the viable cell concentration was determined by the MTT method.
# [2] = tested on: NB4 (acute promyelocytic leukemia) cells; experiment: MTT cell growth inhibition, leukemia cells; format: cell-based; conditions: Homo sapiens, NB4, 72 h, MTT; for IC50: read-out: IC50; for IC90: read-out: IC90
# Text: as §1, §2, §3
# [3] = tested on: RPMI 8226 (multiple myeloma) cells; experiment: MTT cell growth inhibition, multiple myeloma cells; format: cell-based, human; conditions: Homo sapiens, RPMI 8226, 72 h, MTT; for IC50: read-out: IC50; for IC90: read-out: IC90
# Description: Myeloma cell lines: RPMI8226 (multiple myeloma), purchased from Fuxiang Bio-tech Co. Ltd., Shanghai, China.
# 6000 well-growing cells were obtained and inoculated into wells of a 96-well cell culture plate. The culture medium was a RPMI-1640 cell culture medium containing 10% fetal bovine serum. After adding the 7-substituted fangchinoline derivatives of different concentrations the next day and mixing uniformly, the plate was placed in a carbon dioxide cell incubator (5% CO2) at 37° C. and incubated for 72 hours. Then the viable cell concentration was determined by the MTT method.
# [4] = tested on: CNE (nasopharyngeal carcinoma) cells; experiment: MTT cell growth inhibition, solid tumor cells; format: cell-based, human; conditions: Homo sapiens, CNE, 72 h, MTT; for IC50: read-out: IC50; for IC90: read-out: IC90
# Text: (§4) Hep-2 (laryngeal carcinoma), A549 (human lung cancer), CaES-17 (esophageal cancer cell), PC-3 (prostate cancer), CNE (nasopharyngeal carcinoma cell) and SK-OV-3 (ovarian cancer cell), all of which were purchased from China Center For Type Culture Collection; RKO (human colon adenocarcinoma cell), MGC-803 (human gastric cancer cell), MG-63 (osteosarcoma), and U87-MG (malignant glioma cell), all of which were purchased from Fuxiang Bio-tech Co. Ltd., Shanghai, China; PANC-1 (pancreatic cancer), Becap37 (human breast cancer cell), Hela (human cervical cancer cell) and Hep G2 (human liver cancer cell), all of which were donated by Cancer Research Institute of Zhejiang University, China.
# (§5) 6000 well-growing human solid tumor cells were obtained and inoculated into wells of a 96-well cell culture plate. The culture medium was DMEM High Glucose cell culture medium containing 10% fetal bovine serum. The plate was placed in a carbon dioxide cell incubator (5% CO2) at 37° C. and incubated for 24 hours. After added with 7-substituted fangchinoline derivatives of different concentration and mixing uniformly, the plate was placed in a carbon dioxide cell incubator (5% CO2) at 37° C. and incubated for 72 hours. Then the viable cell concentration was determined by the MTT method.
# [5] = tested on: CaEs-17 (esophageal cancer) cells; experiment: MTT cell growth inhibition, solid tumor cells; format: cell-based, human; conditions: Homo sapiens, CaEs17, CaEs-17, 72 h, MTT; for IC50: read-out: IC50; for IC90: read-out: IC90
# Text: as §4, §5
# [6] = tested on: PANC-1 (pancreatic cancer) cells; experiment: MTT cell growth inhibition, solid tumor cells; format: cell-based, human; conditions: Homo sapiens, PANC-1, 72 h, MTT; for IC50: read-out: IC50; for IC90: read-out: IC90
# Text: as §4, §5
# [7] = tested on: PC-3 (prostate cancer) cells; experiment: MTT cell growth inhibition, solid tumor cells; format: cell-based, human; conditions: Homo sapiens, PC-3, 72 h, MTT; for IC50: read-out: IC50; for IC90: read-out: IC90
# Text: as §4, §5
# [8] = tested on: SK-OV-3 (ovarian cancer) cells; experiment: MTT cell growth inhibition, solid tumor cells; format: cell-based, human; conditions: Homo sapiens, SK-OV-3, 72 h, MTT; for IC50: read-out: IC50; for IC90: read-out: IC90
# Text: as §4, §5
# [9] = tested on: A549 (human lung cancer) cells; experiment: MTT cell growth inhibition, solid tumor cells; format: cell-based; conditions: Homo sapiens, A549, 72 h, MTT; for IC50: read-out: IC50; for IC90: read-out: IC90
# Text: as §4, §5
# [10] = tested on: Becap-37 (human breast cancer) cells; experiment: MTT cell growth inhibition, solid tumor cells; format: cell-based; conditions: Homo sapiens, Becap-37, 72 h, MTT; for IC50: read-out: IC50; for IC90: read-out: IC90
# Text: as §4, §5
# [11] = tested on: Hela (human cervical cancer) cells; experiment: MTT cell growth inhibition, solid tumor cells; format: cell-based; conditions: Homo sapiens, Hela, 72 h, MTT; for IC50: read-out: IC50; for IC90: read-out: IC90
# Text: as §4, §5
# [12] = tested on: Hep G2 (human liver cancer) cells; experiment: MTT cell growth inhibition, solid tumor cells; format: cell-based; conditions: Homo sapiens, HepG2, Hep G2, 72 h, MTT; for IC50: read-out: IC50; for IC90: read-out: IC90
# Text: as §4, §5
# [13] = tested on: Hep-2 (laryngeal carcinoma) cells; experiment: MTT cell growth inhibition, solid tumor cells; format: cell-based; conditions: Homo sapiens, Hep-2, 72 h, MTT; for IC50: read-out: IC50; for IC90: read-out: IC90
# Text: as §4, §5
# [14] = tested on: MG-63 (osteosarcoma) cells; experiment: MTT cell growth inhibition, solid tumor cells; format: cell-based; conditions: Homo sapiens, MG-63, 72 h, MTT; for IC50: read-out: IC50; for IC90: read-out: IC90
# Text: as §4, §5
# [15] = tested on: MGC-803 (human gastric cancer) cells; experiment: MTT cell growth inhibition, solid tumor cells; format: cell-based; conditions: MGC-803, 72 h, MTT; for IC50: read-out: IC50; for IC90: read-out: IC90
# Text: as §4, §5
# [16] = tested on: RKO (human colon adenocarcinoma) cells; experiment: MTT cell growth inhibition, solid tumor cells; format: cell-based; conditions: Homo sapiens, RKO, 72 h, MTT; for IC50: read-out: IC50; for IC90: read-out: IC90
# Text: as §4, §5
# [17] = tested on: U87-MG (malignant glioma) cells; experiment: MTT cell growth inhibition, solid tumor cells; format: cell-based; conditions: Homo sapiens, U-87 MG, U87-MG, 72 h, MTT; for IC50: read-out: IC50; for IC90: read-out: IC90
# Text: as §4, §5
# [18] = tested on: tumor; experiment: Antitumor activity compared with fangchinoline, overall statement; format: cell-based; conditions: tumor type not specified
Compound,IC50 [1] [µg/mL],IC90 [1] [µg/mL],IC50 [2] [µg/mL],IC90 [2] [µg/mL],IC50 [3] [µg/mL],IC90 [3] [µg/mL],IC50 [4] [µg/mL],IC90 [4] [µg/mL],IC50 [5] [µg/mL],IC90 [5] [µg/mL],IC50 [6] [µg/mL],IC90 [6] [µg/mL],IC50 [7] [µg/mL],IC90 [7] [µg/mL],IC50 [8] [µg/mL],IC90 [8] [µg/mL],IC50 [9] [µg/mL],IC90 [9] [µg/mL],IC50 [10] [µg/mL],IC90 [10] [µg/mL],further results
COc1ccc2cc1Oc1ccc(cc1)C[C@H]1c3cc(c(OC)cc3CCN1C)Oc1c(OCC3CC3)c(OC)cc3c1[C@H](C2)N(C)CC3 [BS-FC-208],0.28,2.35,0.48,2.48,0.13,0.5,2.7,6,1.79,6.87,2.87,8.31,3.07,5.91,3.77,7.85,2.51,13.1,2.35,5.55,IC50 [11]: 1.74 µg/mL; IC90 [11]: 4 µg/mL; IC50 [12]: 1.94 µg/mL; IC90 [12]: 5.95 µg/mL; IC50 [13]: 3.27 µg/mL; IC90 [13]: 8.05 µg/mL; IC50 [14]: 1.6 µg/mL; IC90 [14]: 2.5 µg/mL; IC50 [15]: 1.49 µg/mL; IC90 [15]: 5.98 µg/mL; IC50 [16]: 1.64 µg/mL; IC90 [16]: 4.64 µg/mL; IC50 [17]: 1.99 µg/mL; IC90 [17]: 7.48 µg/mL; antitumor activity compared with that of fangchinoline [18]: significantly superior
C=CCOc1c(OC)cc2c3c1Oc1cc4c(cc1OC)CCN(C)[C@H]4Cc1ccc(cc1)Oc1cc(ccc1OC)C[C@@H]3N(C)CC2 [BS-FC-213],0.38,1.72,0.66,2.32,0.12,0.5,2.7,5.6,1.68,9.16,3.46,10.4,3.24,7.37,5,11.8,2.19,4.92,2.54,5.29,IC50 [11]: 1.68 µg/mL; IC90 [11]: 3.89 µg/mL; IC50 [12]: 2.12 µg/mL; IC90 [12]: 5.92 µg/mL; IC50 [13]: 3.63 µg/mL; IC90 [13]: 9.9 µg/mL; IC50 [14]: 2.4 µg/mL; IC90 [14]: 3.8 µg/mL; IC50 [15]: 1.49 µg/mL; IC90 [15]: 6.02 µg/mL; IC50 [16]: 1.58 µg/mL; IC90 [16]: 3.46 µg/mL; IC50 [17]: 1.85 µg/mL; IC90 [17]: 9.23 µg/mL; antitumor activity compared with that of fangchinoline [18]: significantly superior
COc1ccc2cc1Oc1ccc(cc1)C[C@H]1c3cc(c(OC)cc3CCN1C)Oc1c(OCc3ccc(C(F)(F)F)cc3)c(OC)cc3c1[C@H](C2)N(C)CC3 [BS-FC-216],0.6,2.15,0.99,2.93,0.13,0.77,3.38,7.34,3.1,7.59,3.62,7.25,3.95,7.45,6.19,11.2,2.7,5.9,3.36,5.3,IC50 [11]: 1.58 µg/mL; IC90 [11]: 3.84 µg/mL; IC50 [12]: 2.54 µg/mL; IC90 [12]: 5.91 µg/mL; IC50 [13]: 3.69 µg/mL; IC90 [13]: 7.88 µg/mL; IC50 [14]: 3.4 µg/mL; IC90 [14]: 5.5 µg/mL; IC50 [15]: 2.72 µg/mL; IC90 [15]: 3.98 µg/mL; IC50 [16]: 1.69 µg/mL; IC90 [16]: 5.79 µg/mL; IC50 [17]: 2.11 µg/mL; IC90 [17]: 7.74 µg/mL; antitumor activity compared with that of fangchinoline [18]: significantly superior

# From US9328122B2, “7-substituted Hanfangichin B derivative, and preparation method and use thereof” (HANGZHOU BENSHENG PHARMACEUTICAL CO., LTD., priority 2012, dated 2016)
